Data on eight compounds can be found in US11530317B2, “Deep eutectic solvent compositions” (SABIC GLOBAL TECHNOLOGIES B.V., priority 2017, dated 2022).

≈ marks a conversion by molar mass, not a printed value. Where two headings read alike, the source gives them in different places.

Series [1] in a line: Quantification of solubility by visual inspection for undissolved material. Type of series: physicochemical. To be noted: for Enhancement factor: solubility in ChCl-urea DES relative to aqueous solution; for Solubility in water: obtained in this work.
Experimental: Solubility was determined through adding an amount of CB[n] n=6, 7 or 8 or x-CD (where x=α, β or γ) to 1 mL of solvent followed by vortexing and heating the mixture to 80° C. The mixture was inspected visually to determine the presence of undissolved material. The mixture was then cooled to room temperature and the mixture re-examined to determine the presence of any undissolved material.
Series [2] can be described thus: UV/vis probing of host-guest binding in ChCl-urea DES. The method, then:
Methylviologen dichloride (2.0 mg, […], 1 eq.) was dissolved in ChCl:urea (1 mL) by vortexing and heating to 60° C. The methylviologen radical was formed by addition of a significant excess of reducing agent, sodium hydrosulfite, approx. 20 molar equivalents. To this solution CB[7] (9.0 mg, […], 1 eq.) was added and dissolved through stirring at 60° C. A sample of this solution (0.1 mL) was added to ChCl-urea (1 mL) and measured by UV/vis.
Methylviologen dichloride (2.0 mg, […], 1 eq.) was dissolved in ChCl:urea (1 mL) by vortexing and heating to 60° C. The methylviologen radical was formed by addition of a significant excess of reducing agent, sodium hydrosulfite, approx. 20 molar equivalents. To this solution CB[8] (10.1 mg, […], 1 eq. or 20.2 mg, 15.6 mmol, 2 eq.) was added and dissolved through stirring at 60° C. 0.1 ml of this solution were added to 1 ml of ChCl-urea and measured by UV/vis.
To probe the binding of γ-CD to MV^.+ a high concentration of MV^.+ was required on account of the lower binding constants of CDs compared to CB[n]. A solution of MV^.+ (15 mg/mL) was prepared (as described for CB[7] above) and to this γ-CD (170 mg, 2 equivalents) was added.

For series [3] the following is noted: values taken from Sabadini et al.; cited from earlier work.
A short description of series [4]: Cyclic voltammetry cycling stability of MV in DES in air. It is filed as physicochemical. To be noted: DES (ChCl-urea, ChCl-ethylene glycol, ChCl-glycerol), no degassing. The method, then:
Electrochemical measurements were performed in air at 40° C. using a PalmSens EmStat potentiostat. A three-electrode cell was used, equipped with a glassy carbon working electrode (3 mm diameter, BASi), a Ag/AgCl reference electrode (BASi) and a platinum mesh counter electrode (Sigma-Aldrich). The working electrode was cleaned before experiments by mechanically polishing in alumina (Buehler, Micropolish, 1 μm) on a polishing cloth (Buehler, Microcloth).
Cyclic voltammetry (CV) was recorded at 0.1 V s^−1 scan rate and 5.0 mM MV^2+ 2Cl^− concentration. FcMeOH (5 mM) was used as an internal reference. Analyte solutions were prepared by heating the respective DES with MV^2+ 2Cl^− and FcMeOH to 80° C. for 30 min.
None of the solutions were degassed before measurement nor was any attempt made to exclude oxygen or air.

Series [5] in a line: Long term UV/vis measurement of MV^+. in ChCl-urea DES exposed to air. It is filed as physicochemical. The method, then: MV^2+ 2Cl^− (1 mg, 0.0039 mmol) was added to ChCl-urea DES (10 mL) and dissolved by heating to 80° C. for 30 min to give a 0.39 mM solution. The solution was then heated to 130° C. for 2 h during which time it had turned blue. A portion (1.5 mL) of the resulting blue solution was removed, placed in a cuvette and a UV/vis spectrum was recorded.
Spectra were recorded across a 100 h period in an open cuvette.
The solution was not degassed or covered in any way nor was any attempt to keep O2 out made.

Series [6] is described as follows: Purging of MV^+. solutions (DES or water) with air, monitored by UV/vis at 609 nm. It is filed as physicochemical.
The nature of series [7]: Photochemical switching of MV in DES (solar light simulator, then air purge). Type of series: physicochemical. As to conditions: photogenerated radical in DES, purging with air. As for the experimental part: DES MV^2+ solution (1.5 mL) in a quartz cuvette (1 cm path length, Hellma) was placed in a water bath held at 25° C. and irradiated by a solar light simulator (Newport Oriel, 100 mW cm^−2) equipped with an air mass 1.5 global filter (AM 1.5 G). IR irradiation was filtered with a water filter (10 cm path length). Samples were thermostatted at 25° C.
Stock solutions of MV^2+ in each of the three DES were prepared as follows: MV^2+ 2Cl^− (10 mg, 0.04 mmol) was added each individual DES (ChCl-urea, ChCl-glycerol and ChCl-ethylene glycol) (10 mL) separately and dissolved by heating to 80° C. for 30 min to give a colorless solution.
MV^2+ in DES (1.5 mL) was transferred to a quartz cuvette and placed in a water bath held at 25° C. in front of a solar light simulator. The sample was removed from the simulator and UV/vis spectra recorded at various time intervals to monitor the formation of MV^+..
The resultant blue MV^+. solutions were then purged with air (30 mL min^−1) using a mass flow controller (Brooks). UV/vis spectra were recorded at time intervals during the purging to monitor the disappearance of the MV^+. species.

Series [8] in a line: Solubility of methylviologen dichloride in ChCl-urea. To be noted: ChCl-urea DES. Type of series: physicochemical. An excerpt: However, it should be noted that other anions, such as [PF6]^− and I^− were also found to be soluble and may also be used.
The mark [9] stands for this setting: ChCl-urea DES, room temperature.

Regarding `O=C1N2CN3C(=O)N4CN5C(=O)N6CN7C(=O)N8CN9C(=O)N%10CN1C1C2N2CN%11C(=O)N(CN%12C(=O)N(CN%13C(=O)N(CN%14C(=O)N(CN1C2=O)C%10C9%14)C8C7%13)C6C5%12)C4C3%11` (stereo not drawn) [CB[5]], the “DES solubility (maximum solubility)” value in series [1] (setting [9]) is given as “approx. 25 mg/mL”.

Regarding `O=C1N2CN3C(=O)N4CN5C(=O)N6CN7C(=O)N8CN9C(=O)N%10CN%11C(=O)N%12CN%13C(=O)N%14CN1C1C2N2CN%15C(=O)N(CN%16C(=O)N(CN%17C(=O)N(CN%18C(=O)N(CN%19C(=O)N(CN%20C(=O)N(CN1C2=O)C%14C%13%20)C%12C%11%19)C%10C9%18)C8C7%17)C6C5%16)C4C3%15` (stereo not drawn) [CB[7]], the maximum solubility in series [1] (ChCl-TsOH DES) was determined as 18.0 mg/mL; in series [1] (ChCl-urea (1:2), room temperature), 15.0 mg cm^−3; in series [1] (ChCl-urea DES), 17.0 mg/mL; in series [1] (H2O) it was 4.4 mg/mL; in series [1] (HCl (3M)), 100 mg/mL; in series [1] (NaCl (0.1M)), 14.8 mg/mL. Also, the maximum solubility in series [1] (Phosphate buffer (pH = 7.0)) amounted to 19.8 mg/mL. In addition, in series [1] (setting [9]), the “DES solubility (maximum solubility)” value is on record as 17 mg/mL. Moreover, the Enhancement factor in series [1] was 3.9. For the same compound, in series [1] (water), the “maximum solubility in water” value was found to be 4.4 mg cm^−3. Further, the Solubility in water in series [1] (water) is on record as 4.4 mg/mL (≈ 3.78 mM). The “host-guest binding with MV^.+ by UV/vis” value in series [2] is on record as “binding of MV^.+ is occurring”.

Regarding Cucurbit[8]uril [CB[8]], the maximum solubility in series [1] (ChCl-TsOH DES) is 3.1 mg/mL; in series [1] (ChCl-urea DES), 2.0 mg/mL; in series [1] (H2O), <0.2 mg/mL; in series [1] (HCl (3M)), 1.8 mg/mL; in series [1] (NaCl (0.1M)), 0.1 mg/mL; in series [1] (Phosphate buffer (pH = 7.0)) it was 0.3 mg/mL. The “DES solubility (maximum solubility)” value in series [1] (setting [9]) is reported as 2 mg/mL. Besides, in series [1], the Enhancement factor is 10. Also, the Solubility in water in series [1] (water) is <0.2 mg/mL. Moreover, the “host-guest binding with MV^.+ by UV/vis” value in series [2] was “formation of a 2:1 complex”.

With `OC[C@H]1O[C@@H]2O[C@H]3[C@H](O)[C@@H](O)[C@@H](O[C@H]4[C@H](O)[C@@H](O)[C@@H](O[C@H]5[C@H](O)[C@@H](O)[C@@H](O[C@H]6[C@H](O)[C@@H](O)[C@@H](O[C@H]7[C@H](O)[C@@H](O)[C@@H](O[C@H]1[C@H](O)[C@H]2O)O[C@@H]7CO)O[C@@H]6CO)O[C@@H]5CO)O[C@@H]4CO)O[C@@H]3CO` [α-CD], the “DES solubility (maximum solubility)” value in series [1] (setting [9]) is >500 mg/mL. In addition, the Enhancement factor in series [1] is recorded as >3.5. In series [3], the Solubility in water is given as 129.5 mg/mL (≈ 133 mM).

Turning to `OC[C@H]1O[C@@H]2O[C@H]3[C@H](O)[C@@H](O)[C@@H](O[C@H]4[C@H](O)[C@@H](O)[C@@H](O[C@H]5[C@H](O)[C@@H](O)[C@@H](O[C@H]6[C@H](O)[C@@H](O)[C@@H](O[C@H]7[C@H](O)[C@@H](O)[C@@H](O[C@H]8[C@H](O)[C@@H](O)[C@@H](O[C@H]1[C@H](O)[C@H]2O)O[C@@H]8CO)O[C@@H]7CO)O[C@@H]6CO)O[C@@H]5CO)O[C@@H]4CO)O[C@@H]3CO` [β-CD], in series [1] (ChCl-urea DES), the “CD content of the solution at that solubility” value is listed as ~50 wt %. Besides, the “DES solubility (maximum solubility)” value in series [1] (setting [9]) is listed as >1000 mg/mL. Also, in series [1], the Enhancement factor is >55.

Regarding `OC[C@H]1O[C@@H]2O[C@H]3[C@H](O)[C@@H](O)[C@@H](O[C@H]4[C@H](O)[C@@H](O)[C@@H](O[C@H]5[C@H](O)[C@@H](O)[C@@H](O[C@H]6[C@H](O)[C@@H](O)[C@@H](O[C@H]7[C@H](O)[C@@H](O)[C@@H](O[C@H]8[C@H](O)[C@@H](O)[C@@H](O[C@H]9[C@H](O)[C@@H](O)[C@@H](O[C@H]1[C@H](O)[C@H]2O)O[C@@H]9CO)O[C@@H]8CO)O[C@@H]7CO)O[C@@H]6CO)O[C@@H]5CO)O[C@@H]4CO)O[C@@H]3CO` [γ-CD], in series [1] (ChCl-urea DES), the “CD content of the solution at that solubility” value is recorded as ~50 wt %. Also, in series [1] (setting [9]), the “DES solubility (maximum solubility)” value was >1000 mg/mL. Moreover, in series [1], the Enhancement factor is reported as >4. Further, in series [2], the “host-guest binding with MV^.+ by UV/vis” value was “binding behaviour similar to the CB[8] system occurred”. Besides, the Solubility in water in series [3] is reported as 249.2 mg/mL (≈ 192 mM).

Consider `O=C1N2CN3C(=O)N4CN5C(=O)N6CN7C(=O)N8CN9C(=O)N%10CN%11C(=O)N%12CN1C1C2N2CN%13C(=O)N(CN%14C(=O)N(CN%15C(=O)N(CN%16C(=O)N(CN%17C(=O)N(CN1C2=O)C%12C%11%17)C%10C9%16)C8C7%15)C6C5%14)C4C3%13` (stereo not drawn) [CB[6]], for which the maximum solubility in series [1] (ChCl-TsOH DES) is 1.0 mg/mL; in series [1] (ChCl-urea DES), 1.0 mg/mL; in series [1] (H2O), <0.1 mg/mL; in series [1] (HCl (3M)) it was 15.0 mg/mL; in series [1] (NaCl (0.1M)), 4.6 mg/mL; in series [1] (Phosphate buffer (pH = 7.0)), 17.4 mg/mL. Also, the “DES solubility (maximum solubility)” value in series [1] (setting [9]) was 1.0 mg/mL. Moreover, the Enhancement factor in series [1] turned out to be 10. For the same compound, in series [1] (water), the Solubility in water is given as <0.1 mg/mL.

Turning to `C[n+]1ccc(-c2cc[n+](C)cc2)cc1.[Cl-].[Cl-]` [MV, N,N′-dimethyl-4,4′-bipyridinium dichloride], in series [4], the electrochemical cycling stability is given as ≥ 100 cycles. Besides, the “change in absorbance at 609 nm” value in series [5] (ChCl-urea DES, exposed to air, 100 h period) is on record as “no change in absorbance at 609 nm”. Also, in series [5] (DES solutions prepared and stored in air), the “time solutions remain blue” value was > 6 months. The forecast lifetime in series [5] (in DES, in air) is > 6 months. For the same compound, the figures for the “radical lifetime upon purging with air” value in series [6] (ChCl-ethylene glycol DES (36 cP)), in series [6] (ChCl-glycerol DES (376 cP)) and in series [6] (ChCl-urea DES (632 cP)) were “shortest radical lifetime”, 900 min and 400 min, respectively. For the same compound, the “time to complete quenching” value in series [6] (aqueous solution, purging with air 0.1 mL min^−1) is “less than 4 min”. Further, the “persistence of radical species” value in series [6] (in DES, purging with air 30 mL min^−1) fell in the range of 2 to 15 h. Besides, in series [7], the “time to revert to colourless” value is recorded as ≤ 150 s. Besides, the “solubility in ChCl-urea” value in series [8] is “soluble”.
